# Tests used:
# Assay type in all cases: cell-based
# [1] = tested on: Acanthamoeba (Cyst)
# [2] = tested on: Acanthamoeba (Trophozoite)
# [3] = tested on: Tetrahymena (Trophozoite)
smiles,measurement,setting,value
N=C(N)N [Guanidine],"Minimal Lethal Concentration, Acanthamoeba (Cyst)",[1],500 µg/mL
same,"Minimal Lethal Concentration, Acanthamoeba (Trophozoite)",[2],500 µg/mL
same,"Minimal Lethal Concentration, Tetrahymena (Trophozoite)",[3],400 µg/mL
CCCCCCCCCCCCNC(=N)N [Dodecylguanidine],"Minimal Lethal Concentration, Acanthamoeba (Cyst)",[1],40 µg/mL
same,"Minimal Lethal Concentration, Acanthamoeba (Trophozoite)",[2],25 µg/mL
same,"Minimal Lethal Concentration, Tetrahymena (Trophozoite)",[3],10 µg/mL
[H]/N=C(\N/C(=N/[H])NCCCCCCNC(=N)NC(=N)Nc1ccc(Cl)cc1)Nc1ccc(Cl)cc1 [Chlorhexidine],"Minimal Lethal Concentration, Acanthamoeba (Cyst)",[1],50 µg/mL
same,"Minimal Lethal Concentration, Acanthamoeba (Trophozoite)",[2],10 µg/mL
same,"Minimal Lethal Concentration, Tetrahymena (Trophozoite)",[3],15 µg/mL
